Data taken from patent EP4692091A1, “CA[…], AND PHARMACEUTICAL COMPOSITION, PREPARATION METHOD THEREFOR AND USE THEREOF” (Changchun Genescience Pharmaceutical Co., Ltd., priority 2023, dated 2024).
pIC50: −log10 of the molar value. ≈ marks a conversion by molar mass, not a printed value. Read-outs that look alike come from different tables or passages of the source.

Columns and labels:
[1] = system: MDA-MB-468; assay: Inhibition of proliferation of MDA-MB-468 cells by test compounds (CellTiter-Glo, 72 h); assay type: cell-based; details: Homo sapiens, MDA-MB-468, 72 h, MDA-MB-468, 72 h incubation
How it was run: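 Cells plated, allowed to adhere, then treated with compounds (final DMSO 0.33%) for 72 h at 37°C. Viability read by CellTiter-Glo luminescence after 30 min at room temperature; IC50 from four-parameter nonlinear fit.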

[2] = Kinetic solubility test in PBS 7.4; assay type: physicochemical; details: pH 7.4, aqueous buffer
Protocol: 10 mM stock solutions of the test substances 6-2, 11-2, 17-2, Dxd, and the control drugs progesterone and diclofenac were prepared using DMSO respectively.
15 µL of 10 mM stock solution of each of the test substances was added to a corresponding position of a corresponding 96-well plate in a specified sequence. 485 µL of the PBS 7.4 was added to a corresponding vial on a sample plate. The experiment was run in duplicate. Each vial was additionally provided with a stirring rod and was plugged. Then, the sample plate was transferred in a thermostatic mixer, and oscillated at a revolving speed of 1,100 rpm at 25°C for 2 h. 2 h later, the plug was removed, the stirring rod was attracted away with a large magnet, and then the sample was transferred from the sample plate to the filter plate. Negative pressure was generated using a vacuum pump to filter the sample. 5 µL of filtrate and 5 µL of blank DMSO were transferred to another sample plate, and then 490 µL of internal standard water (acetonitrile:water=1:1) containing the internal standard was added. Depending on peak shapes, a certain proportion of internal standard water may be used to dilute the sample diluent to give better peak shapes. […]
The sample filtrate was analyzed and quantified by qualitative and quantitative LC/MS of standard substance peaks at known concentrations. […]

[3] = biological target: CYP3A4 (Homo sapiens, UniProt P08684); assay: CYP inhibition in human hepatomicrosomes, CYP3A4
Sequence of CYP3A4 (P08684 whole entry): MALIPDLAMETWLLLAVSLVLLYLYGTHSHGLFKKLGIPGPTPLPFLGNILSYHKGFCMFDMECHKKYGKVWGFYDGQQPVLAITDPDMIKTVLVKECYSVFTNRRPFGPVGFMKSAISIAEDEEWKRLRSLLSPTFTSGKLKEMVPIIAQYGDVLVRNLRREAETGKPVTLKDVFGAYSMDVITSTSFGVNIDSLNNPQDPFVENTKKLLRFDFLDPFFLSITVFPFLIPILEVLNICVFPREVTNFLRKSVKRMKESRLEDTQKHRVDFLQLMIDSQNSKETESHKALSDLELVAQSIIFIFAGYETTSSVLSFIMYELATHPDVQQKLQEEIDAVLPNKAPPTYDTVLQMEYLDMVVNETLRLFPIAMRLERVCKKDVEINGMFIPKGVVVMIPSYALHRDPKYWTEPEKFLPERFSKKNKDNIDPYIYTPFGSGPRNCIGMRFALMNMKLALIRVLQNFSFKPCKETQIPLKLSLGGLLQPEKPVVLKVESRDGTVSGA

CC[C@@]1(O)C(=O)OCc2c1cc1n(c2=O)Cc2c-1nc1cc(F)c(C)c3c1c2[C@@H](NC(=O)CO)CC3 [Dxd]
pIC50 [1]: 8.34 | solubility at 2 h [2]: 11.3 µM (≈ 5.58 µg/mL) | pIC50 [3]: < 4.52 | IC50 ([3]; read-out: 3A4M (IC50 µM), human hepatomicrosomes, substrate Midazolam): > 30 µM
